Format in all cases: binding
One experiment has as its target T1, KRAS G12S (Homo sapiens, UniProt P01116, G12S).
T1 construct: made in house; host or cells: E. coli, e.g. BL21 (DE3)
Put plainly: HTRF assay of K-Ras G12S interaction with SOS1 (PPI-HTRF). To be noted: 5 nM KRAS G12S, read-out: PPI-HTRF-5 nM KRAS G12S. Summed up:
(§1)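 GST-KRas + antiGST-Eu(K); His-hSOS1 + anti-6His-XL665. Buffer ~5 mM HEPES pH 7.4/150 mM NaCl/1 mM DTT/0.05% BSA/0.0025% Igepal. Cpd in DMSO, duplicates 10–0.01 μM; ≥10 min incubation, HTRF 620/665 nm, IC50 from ratio.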

The target in the next experiment is T2, KRAS G12D (Homo sapiens, UniProt P01116, G12D).
T2 construct: made in house; host or cells: E. coli, e.g. BL21 (DE3)
T2 sequence (P01116 1-188 isoform P01116-2 G12D): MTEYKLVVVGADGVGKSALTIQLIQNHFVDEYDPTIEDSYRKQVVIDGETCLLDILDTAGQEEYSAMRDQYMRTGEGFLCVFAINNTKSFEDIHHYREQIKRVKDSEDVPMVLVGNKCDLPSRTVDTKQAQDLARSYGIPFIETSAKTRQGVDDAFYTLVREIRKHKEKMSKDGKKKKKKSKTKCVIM
Nature of the experiment: HTRF assay of K-Ras G12D interaction with SOS1 (PPI-HTRF). To be noted: HTRF, 5 nM KRAS G12D; read-out: PPI-HTRF-5 nM KRAS G12D. Summed up: as §1
A general note: TR-FRET usually uses a lanthanide donor and a delayed reading to cut background.

The target in the next experiment is T3, KRAS WT (Homo sapiens, UniProt P01116).
T3 construct: made in house; host or cells: E. coli, e.g. BL21 (DE3)
T3 sequence (P01116 1-188 isoform P01116-2): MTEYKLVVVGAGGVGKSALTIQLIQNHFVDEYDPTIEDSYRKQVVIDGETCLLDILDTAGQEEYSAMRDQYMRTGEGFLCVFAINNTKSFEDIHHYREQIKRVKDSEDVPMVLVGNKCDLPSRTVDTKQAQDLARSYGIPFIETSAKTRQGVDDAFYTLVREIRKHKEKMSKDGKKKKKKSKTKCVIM
Put plainly: HTRF assay of wildtype K-Ras interaction with SOS1 (PPI-HTRF). The note with it: HTRF, 5 nM KRAS WT; read-out: PPI-HTRF-5 nM KRAS WT. The procedure, abridged: as §1

pIC50: −log10 of the molar value.

Consider 12 molecules from patent US20240116951A1, “HETEROCYCLIC COMPOUNDS AND USES THEREOF” (Kumquat Biosciences Inc., priority 2022, published 2024).

T1 sequence (P01116 1-188 isoform P01116-2 G12S): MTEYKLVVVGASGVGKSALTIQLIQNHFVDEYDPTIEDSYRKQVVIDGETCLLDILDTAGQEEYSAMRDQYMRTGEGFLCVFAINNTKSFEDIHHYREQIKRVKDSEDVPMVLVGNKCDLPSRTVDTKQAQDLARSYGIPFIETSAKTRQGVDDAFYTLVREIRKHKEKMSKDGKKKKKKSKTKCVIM

Consider `N#Cc1c(N)sc2c(F)ccc(-c3c(Cl)cc4c(N5CCC6(CCCN6C(=O)n6cncn6)C5)nc(OC[C@@]56CCCN5C[C@H](F)C6)nc4c3F)c12` (stereo partly drawn) [Compound 261, 4-(4-(1-(1H-1,2,4-triazole-1-carbonyl)-1,7-diazaspiro[4.4]nonan-7-yl)-6-chloro-8-fluoro-2-(((2R,7aS)-2-fluorotetrahydro-1H-pyrrolizin-7a(5H)-yl)methoxy)quinazolin-7-yl)-2-amino-7-fluorobenzo[b]thiophene-3-carbonitrile], for which the pIC50 on KRAS G12S, on KRAS G12D and at KRAS WT was greater than 5.30 each time.
With `C[C@H]1CN(C(=O)n2cnc(F)n2)[C@]12CCN(c1nc(OC[C@@]34CCCN3C[C@H](F)C4)nc3c(F)c(-c4ccc(F)c5sc(N)c(C#N)c45)c(Cl)cc13)C2` [Compound 255, 2-amino-4-(6-chloro-8-fluoro-4-((3S,4R)-1-(3-fluoro-1H-1,2,4-triazole-1-carbonyl)-3-methyl-1,6-diazaspiro[3.4]octan-6-yl)-2-(((2R,7aS)-2-fluorotetrahydro-1H-pyrrolizin-7a(5H)-yl)methoxy)quinazolin-7-yl)-7-fluorobenzo[b]thiophene-3-carbonitrile], the pIC50 at KRAS G12S, on KRAS G12D and on KRAS WT was greater than 5.30 throughout.
For `N#Cc1c(N)sc2c(F)ccc(-c3c(Cl)cc4c(N5CC[C@@]6(CCN6C(=O)n6cnc(C(F)F)n6)C5)nc(OC[C@@]56CCCN5C[C@H](F)C6)nc4c3F)c12` (atropisomer, axis not shown; (aS)) [Compound 278, 2-amino-4-((R)-6-chloro-4-((R)-1-(3-(difluoromethyl)-1H-1,2,4-triazole-1-carbonyl)-1,6-diazaspiro[3.4]octan-6-yl)-8-fluoro-2-(((2R,7aS)-2-fluorotetrahydro-1H-pyrrolizin-7a(5H)-yl)methoxy)quinazolin-7-yl)-7-fluorobenzo[b]thiophene-3-carbonitrile], the pIC50 on KRAS G12S, at KRAS G12D and at KRAS WT was greater than 5.30 throughout.
For the molecule `Nc1nc2c(-c3c(Cl)cc4c(N5CCC6(CC5)CCN6C(=O)n5cncn5)nc(OC[C@@]56CCCN5C[C@H](F)C6)nc4c3F)ccc(F)c2s1` [Compound 269, (7-(7-(2-amino-7-fluorobenzo[d]thiazol-4-yl)-6-chloro-8-fluoro-2-(((2R,7aS)-2-fluorotetrahydro-1H-pyrrolizin-7a(5H)-yl)methoxy)quinazolin-4-yl)-1,7-diazaspiro[3.5]nonan-1-yl)(1H-1,2,4-triazol-1-yl)methanone], the pIC50 at KRAS G12S, on KRAS G12D and at KRAS WT was greater than 5.30 each time.
As to `CN1CCC[C@H]1COc1nc(N2CCC3(CC2)NC(=O)NC3=O)c2cc(Cl)c(-c3cccc4sc(N)nc34)c(F)c2n1` [Compound 249, 8-(7-(2-aminobenzo[d]thiazol-4-yl)-6-chloro-8-fluoro-2-(((S)-1-methylpyrrolidin-2-yl)methoxy)quinazolin-4-yl)-1,3,8-triazaspiro[4.5]decane-2,4-dione], the pIC50 on KRAS G12S, on KRAS G12D and on KRAS WT was greater than 5.30 each time.
In the case of `N#Cc1c(N)sc2c(F)ccc(-c3c(Cl)cc4c(N5CCC6(CCN6C(=O)C(Cl)Cl)C5)nc(OC[C@@]56CCCN5C[C@H](F)C6)nc4c3F)c12` (stereo partly drawn) [Compound 347, 2-amino-4-(6-chloro-4-(1-(2,2-dichloroacetyl)-1,6-diazaspiro[3.4]octan-6-yl)-8-fluoro-2-(((2R,7aS)-2-fluorotetrahydro-1H-pyrrolizin-7a(5H)-yl)methoxy)quinazolin-7-yl)-7-fluorobenzo[b]thiophene-3-carbonitrile], the pIC50 on KRAS G12S, at KRAS G12D and at KRAS WT was greater than 5.30 in each case.
Consider `N#Cc1c(N)sc2c(F)ccc(-c3c(Cl)cc4c(N5CCC6(CCN6C(=O)n6nccn6)C5)nc(OC[C@@]56CCCN5C[C@H](F)C6)nc4c3F)c12` (stereo partly drawn) [Compound 300, 4-(4-(1-(2H-1,2,3-triazole-2-carbonyl)-1,6-diazaspiro[3.4]octan-6-yl)-6-chloro-8-fluoro-2-(((2R,7aS)-2-fluorotetrahydro-1H-pyrrolizin-7a(5H)-yl)methoxy)quinazolin-7-yl)-2-amino-7-fluorobenzo[b]thiophene-3-carbonitrile], for which the pIC50 at KRAS G12S, on KRAS G12D and on KRAS WT was greater than 5.30 throughout.
Take `N#Cc1c(N)sc2c(F)ccc(-c3c(Cl)cc4c(N5CCCC6(CCCN6C(=O)n6cncn6)C5)nc(OC[C@@]56CCCN5C[C@H](F)C6)nc4c3F)c12` (stereo partly drawn) [Compound 208, 4-(4-(1-(1H-1,2,4-triazole-1-carbonyl)-1,7-diazaspiro[4.5]decan-7-yl)-6-chloro-8-fluoro-2-(((2R,7aS)-2-fluorotetrahydro-1H-pyrrolizin-7a(5H)-yl)methoxy)quinazolin-7-yl)-2-amino-7-fluorobenzo[b]thiophene-3-carbonitrile]: the pIC50 at KRAS G12S, at KRAS G12D and at KRAS WT was greater than 5.30 in each case.
For the molecule `CN(C)C1CN(c2nc(N3CCC4(CCN4C(=O)n4cncn4)C3)c3cc(Cl)c(-c4ccc(F)c5sc(N)c(C#N)c45)c(F)c3n2)C1` (stereo not drawn) [Compound 203, 4-(4-(1-(1H-1,2,4-triazole-1-carbonyl)-1,6-diazaspiro[3.4]octan-6-yl)-6-chloro-2-(3-(dimethylamino)azetidin-1-yl)-8-fluoroquinazolin-7-yl)-2-amino-7-fluorobenzo[b]thiophene-3-carbonitrile], the pIC50 was greater than 5.30 on KRAS G12S, less than 5.30 at KRAS G12D and greater than 5.30 on KRAS WT.
As to `Cc1cc(N)c(F)c(-c2c(Cl)cc3c(N4CCC5(CCN5C(=O)n5cncn5)C4)nc(OC[C@@]45CCCN4C[C@H](F)C5)nc3c2F)c1C(F)(F)F` (stereo partly drawn) [Compound 279, (6-(7-(3-amino-2-fluoro-5-methyl-6-(trifluoromethyl)phenyl)-6-chloro-8-fluoro-2-(((2R,7aS)-2-fluorotetrahydro-1H-pyrrolizin-7a(5H)-yl)methoxy)quinazolin-4-yl)-1,6-diazaspiro[3.4]octan-1-yl)(1H-1,2,4-triazol-1-yl)methanone], the pIC50 at KRAS G12S, at KRAS G12D and on KRAS WT was less than 5.30 throughout.
`Nc1nc2c(-c3c(Cl)cc4c(N5CC6(CCN6)C5)nc(OC[C@@]56CCCN5C[C@H](F)C6)nc4c3F)ccc(F)c2s1` [Compound 259, 4-(6-chloro-8-fluoro-2-(((2R,7aS)-2-fluorotetrahydro-1H-pyrrolizin-7a(5H)-yl)methoxy)-4-(1,6-diazaspiro[3.3]heptan-6-yl)quinazolin-7-yl)-7-fluorobenzo[d]thiazol-2-amine]: the pIC50 on KRAS G12S, on KRAS G12D and at KRAS WT was greater than 5.30 in each case.
As to `N#Cc1c(N)sc2c(F)ccc(-c3c(Cl)cc4c(N5CC6(CCN6C(=O)C6CC6(F)F)C5)nc(OC[C@@]56CCCN5C[C@H](F)C6)nc4c3F)c12` (stereo partly drawn) [Compound 340, 2-amino-4-(6-chloro-4-(1-(2,2-difluorocyclopropane-1-carbonyl)-1,6-diazaspiro[3.3]heptan-6-yl)-8-fluoro-2-(((2R,7aS)-2-fluorotetrahydro-1H-pyrrolizin-7a(5H)-yl)methoxy)quinazolin-7-yl)-7-fluorobenzo[b]thiophene-3-carbonitrile], the pIC50 at KRAS G12S, at KRAS G12D and at KRAS WT was greater than 5.30 throughout.
